ChEMBL document CHEMBL5233258, “Recent developments of gallic acid derivatives and their hybrids in medicinal chemistry: A review” (Eur J Med Chem, 2020)
Converted amounts (≈) assume the structure as drawn.

Key:
HCT-116 [1] = test: Anticancer activity against human HCT-116 cells assessed as inhibition of cell growth incubated for 24 hrs by MTT assay; format: functional, cell-based; conditions: HCT-116, 24 h
[2] = system: Mycobacterium tuberculosis; test: Antitubercular activity against Mycobacterium tuberculosis H37 Rv ATCC 27294 incubated for 7 days by Alamar blue assay; format: functional; conditions: H37 Rv ATCC 27294, 168 h, time 7 day
HCT-116 [3] = test: Cytotoxicity against human HCT-116 cells assessed as reduction in cell viability incubated for 72 hrs by MTT assay; format: functional, cell-based; conditions: HCT-116, 72 h
MCF7 [4] = test: Cytotoxicity against human MCF7 cells assessed as reduction in cell viability incubated for 72 hrs by MTT assay; format: functional, cell-based; conditions: MCF7, 72 h
[5] = Antioxidant activity assessed as DPPH radical scavenging activity measured after 30 mins by spectrophotometric analysis; format: functional
HeLa = test: Anticancer activity against human HeLa cells assessed as inhibition of cell growth incubated for 24 hrs by MTT assay; format: functional, cell-based
Bacillus subtilis [6] = test: Antibacterial activity against Bacillus subtilis ATCC 6633 by Mueller-Hinton broth method; format: functional
Bacillus subtilis [7] = test: Bactericidal activity against Bacillus subtilis ATCC 6633 by Mueller-Hinton broth method; format: functional
HepG2 = test: Cytotoxicity against human HepG2 cells by MTT assay; format: functional, cell-based
HCT-116 [8] = test: Cytotoxicity against human HCT-116 cells by MTT assay; format: functional, cell-based
MCF7 [9] = test: Anticancer activity against human MCF7 cells assessed as inhibition of cell growth incubated for 24 hrs by MTT assay; format: functional, cell-based; conditions: MCF7, 24 h
[10] = Antioxidant activity in ethanol solution by DPPH scavenging assay; format: functional
Plasmodium falciparum = test: Antimalarial activity against Plasmodium falciparum; format: functional, organism-based
[11] = Antioxidant activity in DOPC loaded liposomes by DPPH scavenging assay; format: physicochemical
Human alphaherpesvirus 2 = test: Antiviral activity against Herpes simplex viruses type 2 MS infected in Monkey BGM cells; format: functional, organism-based; conditions: Human alphaherpesvirus 2, MS
Rattus norvegicus = species on record: Rattus norvegicus; test: Inhibition of tert-butylhydroperoxide induced lipid peroxidation in rat liver microsomes; format: functional, Microsome
[12] = Antioxidant activity in ethanol; format: functional
[13] = Inhibition of recombinant HIV-1 integrase using V1/V2 as substrate assessed as 3'-end processing of the substrate incubated for 1 hrs; parameters: species or system Human immunodeficiency virus 1
Bacillus subtilis [14] = test: Antibacterial activity against Bacillus subtilis ATCC 9372 assessed as inhibition of bacterial growth incubated for 48 hrs by broth macrodilution method; format: functional
Bacillus subtilis [15] = test: Bactericidal activity against Bacillus subtilis ATCC 9372 assessed as inhibition of bacterial growth incubated for 48 hrs by broth macrodilution method; format: functional
Staphylococcus aureus [16] = test: Antibacterial activity against Staphylococcus aureus ATCC 12598 assessed as inhibition of bacterial growth incubated for 48 hrs by broth macrodilution method; format: functional
Staphylococcus aureus [17] = test: Bactericidal activity against Staphylococcus aureus ATCC 12598 assessed as inhibition of bacterial growth incubated for 48 hrs by broth macrodilution method; format: functional
Micrococcus luteus [18] = test: Antibacterial activity against Micrococcus luteus ATCC 4698 assessed as inhibition of bacterial growth incubated for 48 hrs by broth macrodilution method; format: functional
[19] = system: Corynebacterium ammoniagenes; test: Antibacterial activity against Brevibacterium ammoniagenes ATCC 6872 assessed as inhibition of bacterial growth incubated for 48 hrs by broth macrodilution method; format: functional
[20] = system: Corynebacterium ammoniagenes; test: Bactericidal activity against Brevibacterium ammoniagenes ATCC 6872 assessed as inhibition of bacterial growth incubated for 48 hrs by broth macrodilution method; format: functional
Micrococcus luteus [21] = test: Bactericidal activity against Micrococcus luteus ATCC 4698 assessed as inhibition of bacterial growth incubated for 48 hrs by broth macrodilution method; format: functional
[22] = target: T1, Seed linoleate 13S-lipoxygenase-1 (Glycine max, UniProt P08170); test: Inhibition of soybean LOX-1
T1 sequence (P08170 whole entry): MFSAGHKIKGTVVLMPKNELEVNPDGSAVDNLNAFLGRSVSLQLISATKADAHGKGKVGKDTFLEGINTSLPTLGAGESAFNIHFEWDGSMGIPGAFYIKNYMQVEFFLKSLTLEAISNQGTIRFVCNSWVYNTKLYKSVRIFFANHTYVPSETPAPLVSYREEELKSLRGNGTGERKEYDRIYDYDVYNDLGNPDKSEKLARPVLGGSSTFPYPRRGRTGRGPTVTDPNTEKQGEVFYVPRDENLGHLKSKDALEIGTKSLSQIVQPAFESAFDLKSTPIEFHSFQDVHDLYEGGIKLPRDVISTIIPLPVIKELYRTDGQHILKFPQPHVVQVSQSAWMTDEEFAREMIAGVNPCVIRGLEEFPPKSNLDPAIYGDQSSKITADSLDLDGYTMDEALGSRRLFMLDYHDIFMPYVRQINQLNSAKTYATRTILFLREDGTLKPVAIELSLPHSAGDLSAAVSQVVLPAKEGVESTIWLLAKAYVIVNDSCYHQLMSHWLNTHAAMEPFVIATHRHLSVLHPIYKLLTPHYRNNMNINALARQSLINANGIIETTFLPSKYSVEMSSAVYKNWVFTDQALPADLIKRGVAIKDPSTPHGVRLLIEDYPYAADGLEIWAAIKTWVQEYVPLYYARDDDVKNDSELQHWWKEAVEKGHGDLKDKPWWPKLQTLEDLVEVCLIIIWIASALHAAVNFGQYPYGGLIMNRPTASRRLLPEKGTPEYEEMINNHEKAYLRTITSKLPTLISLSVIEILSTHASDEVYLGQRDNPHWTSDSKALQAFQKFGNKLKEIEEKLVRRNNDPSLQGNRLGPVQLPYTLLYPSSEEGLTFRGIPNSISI

[23] = Inhibition of recombinant HIV-1 integrase using 32-P labeled dBY-1 as substrate assessed as disintegration of substrate incubated for 1 hrs; parameters: species or system Human immunodeficiency virus 1

## N#Cc1c(NC(=O)c2cc(O)c(O)c(O)c2)sc2c1CCCCC2
HCT-116 [1]
  IC50: 3.2 µg/mL (≈ 9.29 µM)

## NNC(=O)c1ccncc1 [ISONIAZID]
[2]
  MIC: 0.56 µg/mL (≈ 4.08 µM)

## O=C(N/N=C/c1c[nH]c2ccc(Br)cc12)c1cc(O)c(O)c(O)c1
HCT-116 [3]
  IC50: 13.3 µM
MCF7 [4]
  IC50: 6.7 µM
[5]
  IC50: 0.172 mM

## O=C(O)c1cc(O)c(O)c(O)c1 [GALLIC ACID]
HeLa
  IC50: 26.3 µg/mL (≈ 155 µM)
HCT-116 [1]
  IC50: 41.8 µg/mL (≈ 246 µM)

## CCCCCCCCCCCC[N+](C)(C)CC(=O)O
Bacillus subtilis [6]
  MIC: 1100 µM
Bacillus subtilis [7]
  MBC: 1100 µM
[5]
  IC50: 4.69 mM

## CC(=O)O[C@H]1C(=O)[C@@]2(C)[C@H]([C@H](OC(=O)c3ccccc3)[C@]3(O)C[C@H](OC(=O)[C@H](O)[C@@H](NC(=O)c4ccccc4)c4ccccc4)C(C)=C1C3(C)C)[C@]1(OC(C)=O)CO[C@@H]1C[C@@H]2O [PACLITAXEL]
HepG2
  IC50: 0.66 µg/mL (≈ 0.773 µM)
HCT-116 [8]
  IC50: 0.915 µg/mL (≈ 1.07 µM)
MCF7 [9]
  IC50: 2.5 nM

## COC(=O)c1cc(O)c(O)c(O)c1 [GALLIC ACID METHYL ESTER]
[10]
  IC50: 7.2 µM
Plasmodium falciparum
  IC50: 30 µM
[11]
  IC50: 8.41 µM
Human alphaherpesvirus 2
  IC50: 224 nM

## COc1ccc(C2=NN(C(=O)c3cc(O)c(O)c(O)c3)C(c3ccc(C#N)cc3)C2)cc1OC (stereo not drawn)
HepG2
  IC50: 15.2 µg/mL (≈ 33.1 µM)
HCT-116 [8]
  IC50: 31.5 µg/mL (≈ 68.6 µM)

## O=c1c(O[C@@H]2O[C@H](CO)[C@@H](O)[C@H](O)[C@H]2O)c(-c2ccc(O)c(O)c2)oc2cc(O)cc(O)c12 [ISOQUERCETIN]
Rattus norvegicus
  IC50: 972 µM

## CCCCCCCCOC(=O)c1cc(O)c(O)c(O)c1 [OCTYL_GALLATE]
[12]
  IC50: 19 ppm

## O=C(OC[C@]1(O)C[C@@H](O)[C@@H](O)[C@H](OC(=O)c2cc(O)c(O)c(O)c2)C1)c1cc(O)c(O)c(O)c1
[13]
  IC50: 2790 nM

## COc1cccc(OC)c1C(=O)N[C@@H]1C(=O)N2[C@@H]1SC(C)(C)[C@@H]2C(=O)O [METHICILLIN]
Bacillus subtilis [14]
  MIC: 1.56 µg/mL (≈ 4.1 µM)
Bacillus subtilis [15]
  MBC: 6.25 µg/mL (≈ 16.4 µM)
Staphylococcus aureus [16]
  MIC: 1.56 µg/mL (≈ 4.1 µM)
Staphylococcus aureus [17]
  MBC: > 6.25 µg/mL
Micrococcus luteus [18]
  MIC: 6.25 µg/mL (≈ 16.4 µM)
[19]
  MIC: 25 µg/mL (≈ 65.7 µM)
[20]
  MBC: 25 µg/mL (≈ 65.7 µM)
Micrococcus luteus [21]
  MBC: 6.25 µg/mL (≈ 16.4 µM)

## CCCCCCCCCCCCOC(=O)c1cc(O)c(O)c(O)c1 [DODECYL GALLATE]
Bacillus subtilis [14]
  MIC: > 200 µg/mL
Bacillus subtilis [15]
  MBC: > 200 µg/mL
Staphylococcus aureus [16]
  MIC: > 200 µg/mL
Staphylococcus aureus [17]
  MBC: > 200 µg/mL
Micrococcus luteus [18]
  MIC: > 200 µg/mL
[19]
  MIC: > 200 µg/mL
[22]
  IC50: 1100 nM
[20]
  MBC: > 200 µg/mL
Micrococcus luteus [21]
  MBC: > 200 µg/mL

## O=C(/C=C/c1ccc(O)c(O)c1)O[C@@H]1C[C@](O)(C(=O)O)C[C@@H](OC(=O)/C=C/c2ccc(O)c(O)c2)[C@H]1O
[23]
  IC50: 5.53 µM

## N#Cc1c(NC(=O)c2cc(O)c(O)c(O)c2)sc2c1CCC2
HeLa
  IC50: 59.4 µg/mL (≈ 188 µM)

## COc1cc(/C=C/C(=O)CC(=O)/C=C/c2ccc(O)c(OC)c2)ccc1O [CURCUMIN]
HCT-116 [3]
  IC50: 34.7 µM
MCF7 [4]
  IC50: 13.7 µM

## O=C(OC[C@H]1O[C@@H](Oc2c(-c3ccc(O)c(O)c3)oc3cc(O)cc(O)c3c2=O)[C@H](O)[C@@H](O)[C@@H]1O)c1cc(O)c(O)c(O)c1
Rattus norvegicus
  IC50: 6.64 µM

## COc1cc2c(cc1Cc1cccc(Cl)c1F)c(=O)c(C(=O)O)cn2[C@H](CO)C(C)C [ELVITEGRAVIR]
[23]
  IC50: > 100 µM

## COc1ccc(C2CC(c3ccc(OC)c(OC)c3)=NN2C(=O)c2cc(O)c(O)c(O)c2)cc1 (stereo not drawn)
HepG2
  IC50: 8.4 µg/mL (≈ 18.1 µM)
HCT-116 [8]
  IC50: 18.6 µg/mL (≈ 40 µM)

## O=C(O[C@@H]1C[C@H](O)C[C@@H](O)[C@H]1O)c1cc(O)c(O)c(O)c1
[13]
  IC50: 710 nM

## Cc1nnc(C(=O)NC(C)(C)c2nc(C(=O)NCc3ccc(F)cc3)c(O)c(=O)n2C)o1 [RALTEGRAVIR]
[23]
  IC50: 35.2 µM

## O=C(N/N=C/c1c[nH]c2ccc(Cl)cc12)c1cc(O)c(O)c(O)c1
HCT-116 [3]
  IC50: 19.2 µM
MCF7 [4]
  IC50: 6.7 µM
[5]
  IC50: 0.189 mM

## O=C(NN1C(=O)CSC1c1ccccc1Cl)c1cc(O)c(O)c(O)c1 (stereo not drawn)
[2]
  MIC: 0.79 µg/mL (≈ 2.07 µM)

## O=C(O[C@@H]1C[C@@H](O)[C@@H](O)[C@H](OC(=O)c2cc(O)c(O)c(O)c2)C1)c1cc(O)c(O)c(O)c1
[13]
  IC50: 330 nM

## CCCCCCOC(=O)c1cc(O)c(O)c(O)c1 [HEXYL GALLATE]
Plasmodium falciparum
  IC50: 110 µM

## CCCCCCCCCCCC[N+](C)(C)CCOCCO
Bacillus subtilis [6]
  MIC: 2400 µM
Bacillus subtilis [7]
  MBC: 2400 µM
[5]
  IC50: 4.82 mM
